Results taken from ChEMBL document CHEMBL1201862, “PubChem BioAssay data set” (2004).
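Where inhibition never reached the appropriate level, the endpoint shown equals the highest concentration tested. Otherwise, values were interpolated linearly from a five-concentration, 48-hour dose response in 96-well plates. GI50 is the concentration that inhibits growth by half.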 Activity calls are given as the source filed them. Rule as the data show it: active = GI50 up to about 1.1 µM and inactive = higher.

Columns and labels:
Assay in all cases: NCI anticancer screen, dose series, 48 h
[1] = system: 786-0
[2] = system: A498
[3] = system: A549
[4] = system: ACHN
[5] = system: BT-549
[6] = system: CAKI-1
[7] = system: CCRF-CEM
[8] = system: COLO 205
[9] = system: DLD-1
[10] = system: DMS-114
[11] = system: DMS-273
[12] = system: DU-145
[13] = system: EKVX
[14] = system: HCC 2998
[15] = system: HCT-116
[16] = system: HCT-15
[17] = system: HL-60
[18] = system: HOP-18
[19] = system: HOP-62
[20] = system: HOP-92
[21] = system: HT-29
[22] = system: Hs-578T
[23] = system: IGROV-1
[24] = system: K562
[25] = system: KM-20L2
[26] = system: KM12
[27] = system: LOX IMVI
[28] = system: LXFL 529
[29] = system: M14
[30] = system: M19-MEL
[31] = system: MDA-MB-231
[32] = system: MDA-MB-435
[33] = system: MDA-N
[34] = system: MOLT-4
[35] = system: Malme-3M
[36] = system: NCI-H226
[37] = system: NCI-H23
[38] = system: NCI-H460
[39] = system: NCI-H522
[40] = system: NCI/ADR-RES
[41] = system: OVCAR-3
[42] = system: OVCAR-4
[43] = system: OVCAR-5
[44] = system: OVCAR-8
[45] = system: PC-3
[46] = system: RPMI-8226
[47] = system: RXF 393
[48] = system: SF-268
[49] = system: SF-295
[50] = system: SF-539
[51] = system: SK-MEL-28
[52] = system: SK-MEL-2
[53] = system: SK-MEL-5
[54] = system: SK-OV-3
[55] = system: SN12C
[56] = system: SNB-19
[57] = system: SNB-75
[58] = system: SNB-78
[59] = system: SR
[60] = system: SW-620
[61] = system: T47D
[62] = system: TK-10
[63] = system: U-251
[64] = system: UACC-257
[65] = system: UACC-62
[66] = system: UO-31
[67] = system: XF498

Measured: GI50

C=C(c1ccccc1)[C@@]1(O)CC[C@@H]1N(CC#N)Cc1ccccc1
18.7 µM: [16]
inactive: [1] 18.4 µM | [2] 13.6 µM | [3] 32.9 µM | [4] 20.8 µM | [5] 19.9 µM | [6] 18.9 µM | [7] 32 µM | [8] 16.3 µM | [9] 19.6 µM | [10] 17 µM | [11] 20.5 µM | [12] 80.7 µM | [13] 37.7 µM | [14] 21.2 µM | [15] 16.6 µM | [17] 32 µM | [18] 14.6 µM | [19] 97.3 µM | [20] 18.7 µM | [21] 19.8 µM | [22] 20.7 µM | [23] 36.1 µM | [24] 42.1 µM | [25] 63.1 µM | [26] 28.6 µM | [27] 19.1 µM | [28] 15.9 µM | [29] 17.3 µM | [30] 28.3 µM | [31] 14 µM | [32] 22.5 µM | [33] 22.3 µM | [34] 26.3 µM | [35] 3.23 µM | [36] 35.2 µM | [37] 23.1 µM | [38] 44.3 µM | [39] 20.6 µM | [40] 19.7 µM | [41] 12.3 µM | [42] 15.3 µM | [43] 53.6 µM | [44] 33.4 µM | [45] 22.9 µM | [46] 20 µM | [47] 17.7 µM | [48] 33.5 µM | [49] 58.1 µM | [50] 29.2 µM | [51] 17.2 µM | [52] 20.9 µM | [53] 15.9 µM | [54] 98.9 µM | [55] 20.1 µM | [56] 36.6 µM | [57] 33.9 µM | [58] 31.2 µM | [59] 37.2 µM | [60] 18.2 µM | [61] 16.3 µM | [62] 20.8 µM | [63] 53.3 µM | [64] 17.8 µM | [65] 17.9 µM | [66] 26.7 µM

COc1cc(C=O)c(-c2cc(OC)c(OC)cc2C=O)cc1OC
> 100 µM: [16]
inactive: [1] > 100 µM | [2] > 100 µM | [3] > 100 µM | [4] > 100 µM | [6] > 100 µM | [7] 30.1 µM | [8] > 100 µM | [9] 65 µM | [10] 24.3 µM | [11] > 100 µM | [13] > 100 µM | [14] > 100 µM | [15] 70.3 µM | [17] 36.8 µM | [18] > 100 µM | [19] > 100 µM | [20] > 100 µM | [21] 76.2 µM | [23] > 100 µM | [24] 36.7 µM | [25] > 100 µM | [26] > 100 µM | [27] 13.7 µM | [28] > 100 µM | [29] > 100 µM | [30] > 100 µM | [34] 50.6 µM | [35] > 100 µM | [36] > 100 µM | [37] 52.6 µM | [38] 90.4 µM | [39] > 100 µM | [41] > 100 µM | [42] > 100 µM | [43] > 100 µM | [44] 91.4 µM | [46] 36.9 µM | [47] 24.5 µM | [48] 46.7 µM | [49] > 100 µM | [50] > 100 µM | [51] 47.8 µM | [52] 67 µM | [53] 76.6 µM | [54] > 100 µM | [55] > 100 µM | [56] > 100 µM | [57] > 100 µM | [58] > 100 µM | [59] 24.3 µM | [60] 78 µM | [62] > 100 µM | [63] > 100 µM | [64] > 100 µM | [65] > 100 µM | [66] 64.6 µM

C[N+](C)(C)CC1CCC(C[N+](C)(C)C)C1=NO (stereo not drawn)
> 100 µM: [16]
inactive: [1] > 100 µM | [2] > 100 µM | [3] > 100 µM | [4] > 100 µM | [7] > 100 µM | [8] > 100 µM | [9] > 100 µM | [13] > 100 µM | [15] > 100 µM | [17] > 100 µM | [18] > 100 µM | [19] > 100 µM | [21] > 100 µM | [23] > 100 µM | [24] > 100 µM | [25] > 100 µM | [26] > 100 µM | [27] > 100 µM | [28] > 100 µM | [29] > 100 µM | [30] > 100 µM | [34] > 100 µM | [35] > 100 µM | [36] > 100 µM | [37] > 100 µM | [39] > 100 µM | [41] > 100 µM | [42] > 100 µM | [44] > 100 µM | [46] > 100 µM | [47] > 100 µM | [48] > 100 µM | [49] > 100 µM | [50] > 100 µM | [51] > 100 µM | [52] > 100 µM | [53] > 100 µM | [54] > 100 µM | [55] > 100 µM | [56] > 100 µM | [57] > 100 µM | [58] > 100 µM | [59] > 100 µM | [60] > 100 µM | [63] > 100 µM | [64] > 100 µM | [65] > 100 µM | [66] > 100 µM | [67] > 100 µM
